Assays:
[1] = biological target: Insulin-like growth factor 1 receptor (Homo sapiens) (UniProt P08069); assay: Inhibition of IGF1R at 10 uM by HTRF assay
[2] = biological target: Insulin receptor (Homo sapiens) (UniProt P06213); assay: Inhibition of InR at 10 uM by HTRF assay
[3] = biological target: Fibroblast growth factor receptor 1 (Homo sapiens) (UniProt P11362); assay: Inhibition of FGFR1 at 10 uM by HTRF assay
[4] = biological target: Receptor-type tyrosine-protein kinase FLT3 (Homo sapiens) (UniProt P36888); assay: Inhibition of Flt3 at 10 uM by HTRF assay
[5] = biological target: Epidermal growth factor receptor (Homo sapiens) (UniProt P00533); assay: Inhibition of EGFR at 10 uM by HTRF assay
[6] = biological target: Receptor tyrosine-protein kinase erbB-2 (Homo sapiens) (UniProt P04626); assay: Inhibition of ErbB2 at 10 uM by HTRF assay
[7] = biological target: Hepatocyte growth factor receptor (Homo sapiens) (UniProt P08581); assay: Inhibition of cMET at 10 uM by HTRF assay
[8] = biological target: Macrophage-stimulating protein receptor (Homo sapiens) (UniProt Q04912); assay: Inhibition of Ron at 10 uM by HTRF assay
[9] = Inhibition of PKA at 10 uM by HTRF assay
[10] = biological target: Glycogen synthase kinase-3 beta (Homo sapiens) (UniProt P49841); assay: Inhibition of GSK3-beta at 10 uM by HTRF assay
[11] = biological target: Bcr/Abl fusion protein (Homo sapiens) (UniProt P00519+P11274); assay: Inhibition of bcr-Abl at 10 uM by HTRF assay; format: protein assay
[12] = biological target: Cyclin-dependent kinase 1 (Homo sapiens) (UniProt P06493); assay: Inhibition of CDK1 at 10 uM by HTRF assay
[13] = biological target: Cyclin-dependent kinase 2 (Homo sapiens) (UniProt P24941); assay: Inhibition of CDK2 at 10 uM by HTRF assay
[14] = biological target: Proto-oncogene tyrosine-protein kinase Src (Homo sapiens) (UniProt P12931); assay: Inhibition of Src at 10 uM by HTRF assay
[15] = Inhibition of Bcr-Abl T315 mutant at 10 uM by HTRF assay
[16] = biological target: Serine/threonine-protein kinase PLK1 (Homo sapiens) (UniProt P53350); assay: Inhibition of Plk1 at 10 uM by HTRF assay
[17] = biological target: T1, Vascular endothelial growth factor receptor 2 (Homo sapiens, UniProt P35968); assay: Inhibition of VEGFR2 assessed as blockade of pGAT-biotin phosphorylation in presence of 2 uM ATP by HTRF assay
[18] = biological target: Vascular endothelial growth factor receptor 1 (Homo sapiens, UniProt P17948); assay: Inhibition of VEGFR1 assessed as blockade of pGAT-biotin phosphorylation in presence of 2 uM ATP by HTRF assay
[19] = biological target: T1, Vascular endothelial growth factor receptor 2; assay: Inhibition of VEGFR2 expressed in HEK293 cells assessed as inhibition of receptor phosphorylation by ELISA; format: cell-based
[20] = biological target: T2, Aurora kinase A (Homo sapiens) (UniProt O14965); assay: Inhibition of Aurora A at 10 uM by HTRF assay
T2 sequence (whole entry): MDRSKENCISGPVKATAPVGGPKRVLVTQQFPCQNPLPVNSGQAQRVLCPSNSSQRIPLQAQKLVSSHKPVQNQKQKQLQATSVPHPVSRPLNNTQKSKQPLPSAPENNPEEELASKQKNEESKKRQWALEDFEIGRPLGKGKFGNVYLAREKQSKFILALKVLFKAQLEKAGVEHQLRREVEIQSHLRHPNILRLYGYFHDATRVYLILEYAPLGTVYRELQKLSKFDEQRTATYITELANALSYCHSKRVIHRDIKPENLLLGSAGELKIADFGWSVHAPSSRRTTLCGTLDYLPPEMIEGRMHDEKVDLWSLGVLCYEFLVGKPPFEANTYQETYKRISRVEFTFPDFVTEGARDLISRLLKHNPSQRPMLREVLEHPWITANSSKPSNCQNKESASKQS

[21] = biological target: Aurora kinase B (Homo sapiens) (UniProt Q96GD4); assay: Inhibition of Aurora B at 10 uM by HTRF assay
Sequence of Aurora kinase B (Homo sapiens) (Q96GD4 whole entry): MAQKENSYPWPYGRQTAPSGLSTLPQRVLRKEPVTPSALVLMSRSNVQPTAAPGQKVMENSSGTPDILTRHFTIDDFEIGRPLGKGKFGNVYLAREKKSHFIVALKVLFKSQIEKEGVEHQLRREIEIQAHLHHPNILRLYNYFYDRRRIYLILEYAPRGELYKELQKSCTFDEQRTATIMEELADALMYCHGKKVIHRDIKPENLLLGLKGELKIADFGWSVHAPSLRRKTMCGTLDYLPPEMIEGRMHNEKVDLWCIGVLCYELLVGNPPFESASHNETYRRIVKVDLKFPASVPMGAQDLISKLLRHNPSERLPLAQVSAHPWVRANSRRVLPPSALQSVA

Sequence of Fibroblast growth factor receptor 1 (Homo sapiens) (P11362 22-822 limits assumed): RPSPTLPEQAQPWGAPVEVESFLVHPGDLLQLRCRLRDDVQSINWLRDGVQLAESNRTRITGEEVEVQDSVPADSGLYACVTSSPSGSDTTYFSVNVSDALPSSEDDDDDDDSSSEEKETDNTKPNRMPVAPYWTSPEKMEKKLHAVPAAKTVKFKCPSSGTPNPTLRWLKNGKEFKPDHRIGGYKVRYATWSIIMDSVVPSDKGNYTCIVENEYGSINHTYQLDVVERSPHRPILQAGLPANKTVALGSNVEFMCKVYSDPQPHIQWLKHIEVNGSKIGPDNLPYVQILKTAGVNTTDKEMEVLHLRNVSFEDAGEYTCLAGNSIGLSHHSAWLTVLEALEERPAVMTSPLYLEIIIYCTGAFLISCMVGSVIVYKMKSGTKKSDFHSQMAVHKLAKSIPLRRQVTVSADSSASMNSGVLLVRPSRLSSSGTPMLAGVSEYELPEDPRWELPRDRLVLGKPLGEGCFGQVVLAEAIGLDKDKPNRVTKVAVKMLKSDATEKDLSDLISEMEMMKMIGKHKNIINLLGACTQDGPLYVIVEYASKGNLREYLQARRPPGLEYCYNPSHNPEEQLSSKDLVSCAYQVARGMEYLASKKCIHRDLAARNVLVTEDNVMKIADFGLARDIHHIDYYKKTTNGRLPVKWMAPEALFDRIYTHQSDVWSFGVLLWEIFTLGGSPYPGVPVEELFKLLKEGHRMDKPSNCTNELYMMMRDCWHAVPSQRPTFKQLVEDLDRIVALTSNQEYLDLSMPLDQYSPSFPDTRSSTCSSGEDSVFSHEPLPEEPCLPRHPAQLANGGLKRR
Sequence of Epidermal growth factor receptor (Homo sapiens) (P00533 whole entry): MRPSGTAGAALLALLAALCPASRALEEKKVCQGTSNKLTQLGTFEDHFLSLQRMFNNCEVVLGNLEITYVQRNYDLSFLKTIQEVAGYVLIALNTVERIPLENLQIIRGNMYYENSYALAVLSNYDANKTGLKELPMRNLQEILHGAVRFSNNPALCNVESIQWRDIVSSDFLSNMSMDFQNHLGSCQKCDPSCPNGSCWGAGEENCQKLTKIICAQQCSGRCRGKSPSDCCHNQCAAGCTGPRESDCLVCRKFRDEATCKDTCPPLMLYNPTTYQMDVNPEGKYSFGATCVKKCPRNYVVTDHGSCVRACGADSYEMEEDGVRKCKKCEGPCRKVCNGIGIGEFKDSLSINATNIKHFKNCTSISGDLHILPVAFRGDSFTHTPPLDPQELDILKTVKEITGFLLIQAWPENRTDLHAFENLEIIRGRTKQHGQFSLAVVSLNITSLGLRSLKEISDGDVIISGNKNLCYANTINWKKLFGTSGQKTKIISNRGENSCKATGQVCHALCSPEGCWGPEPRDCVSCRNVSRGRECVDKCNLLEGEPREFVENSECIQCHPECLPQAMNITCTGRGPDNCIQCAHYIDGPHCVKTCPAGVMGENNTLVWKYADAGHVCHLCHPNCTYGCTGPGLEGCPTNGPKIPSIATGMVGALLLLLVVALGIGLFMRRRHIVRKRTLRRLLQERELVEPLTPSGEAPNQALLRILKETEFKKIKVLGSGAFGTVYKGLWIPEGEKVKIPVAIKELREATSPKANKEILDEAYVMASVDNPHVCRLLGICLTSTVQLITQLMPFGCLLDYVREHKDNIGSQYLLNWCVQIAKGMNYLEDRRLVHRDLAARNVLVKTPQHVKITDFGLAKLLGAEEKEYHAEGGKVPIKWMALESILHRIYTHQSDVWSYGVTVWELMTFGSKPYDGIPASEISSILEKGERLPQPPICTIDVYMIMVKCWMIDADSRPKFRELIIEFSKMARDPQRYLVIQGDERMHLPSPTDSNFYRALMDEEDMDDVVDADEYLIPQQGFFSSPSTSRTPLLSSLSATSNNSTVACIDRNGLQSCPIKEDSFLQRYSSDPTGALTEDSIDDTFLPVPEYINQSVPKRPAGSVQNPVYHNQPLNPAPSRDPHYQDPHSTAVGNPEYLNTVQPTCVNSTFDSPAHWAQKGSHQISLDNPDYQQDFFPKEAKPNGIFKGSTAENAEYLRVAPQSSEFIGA
Sequence of Glycogen synthase kinase-3 beta (Homo sapiens) (P49841 whole entry, looked up, the tested form may be a part): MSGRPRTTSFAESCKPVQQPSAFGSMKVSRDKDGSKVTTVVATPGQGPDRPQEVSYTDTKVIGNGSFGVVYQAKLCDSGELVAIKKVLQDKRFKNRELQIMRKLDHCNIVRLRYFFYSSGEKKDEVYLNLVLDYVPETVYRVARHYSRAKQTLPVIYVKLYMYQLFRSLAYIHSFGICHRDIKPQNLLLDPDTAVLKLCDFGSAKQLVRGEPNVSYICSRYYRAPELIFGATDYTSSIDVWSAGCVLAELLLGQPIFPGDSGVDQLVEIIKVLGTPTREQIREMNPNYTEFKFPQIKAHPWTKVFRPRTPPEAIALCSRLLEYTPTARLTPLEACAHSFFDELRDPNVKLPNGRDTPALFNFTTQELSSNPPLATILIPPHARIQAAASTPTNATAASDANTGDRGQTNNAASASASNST
Sequence of Cyclin-dependent kinase 1 (Homo sapiens) (P06493 whole entry, looked up): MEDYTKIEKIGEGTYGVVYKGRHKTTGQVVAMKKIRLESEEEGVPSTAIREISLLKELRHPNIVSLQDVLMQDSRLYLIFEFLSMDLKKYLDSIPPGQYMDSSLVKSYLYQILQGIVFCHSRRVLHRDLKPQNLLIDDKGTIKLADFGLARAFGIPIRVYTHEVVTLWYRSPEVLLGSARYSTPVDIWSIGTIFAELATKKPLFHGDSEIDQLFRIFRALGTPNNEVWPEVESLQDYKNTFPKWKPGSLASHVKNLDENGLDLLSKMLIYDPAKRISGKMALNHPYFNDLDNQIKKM
Sequence of Receptor tyrosine-protein kinase erbB-2 (Homo sapiens) (P04626 whole entry): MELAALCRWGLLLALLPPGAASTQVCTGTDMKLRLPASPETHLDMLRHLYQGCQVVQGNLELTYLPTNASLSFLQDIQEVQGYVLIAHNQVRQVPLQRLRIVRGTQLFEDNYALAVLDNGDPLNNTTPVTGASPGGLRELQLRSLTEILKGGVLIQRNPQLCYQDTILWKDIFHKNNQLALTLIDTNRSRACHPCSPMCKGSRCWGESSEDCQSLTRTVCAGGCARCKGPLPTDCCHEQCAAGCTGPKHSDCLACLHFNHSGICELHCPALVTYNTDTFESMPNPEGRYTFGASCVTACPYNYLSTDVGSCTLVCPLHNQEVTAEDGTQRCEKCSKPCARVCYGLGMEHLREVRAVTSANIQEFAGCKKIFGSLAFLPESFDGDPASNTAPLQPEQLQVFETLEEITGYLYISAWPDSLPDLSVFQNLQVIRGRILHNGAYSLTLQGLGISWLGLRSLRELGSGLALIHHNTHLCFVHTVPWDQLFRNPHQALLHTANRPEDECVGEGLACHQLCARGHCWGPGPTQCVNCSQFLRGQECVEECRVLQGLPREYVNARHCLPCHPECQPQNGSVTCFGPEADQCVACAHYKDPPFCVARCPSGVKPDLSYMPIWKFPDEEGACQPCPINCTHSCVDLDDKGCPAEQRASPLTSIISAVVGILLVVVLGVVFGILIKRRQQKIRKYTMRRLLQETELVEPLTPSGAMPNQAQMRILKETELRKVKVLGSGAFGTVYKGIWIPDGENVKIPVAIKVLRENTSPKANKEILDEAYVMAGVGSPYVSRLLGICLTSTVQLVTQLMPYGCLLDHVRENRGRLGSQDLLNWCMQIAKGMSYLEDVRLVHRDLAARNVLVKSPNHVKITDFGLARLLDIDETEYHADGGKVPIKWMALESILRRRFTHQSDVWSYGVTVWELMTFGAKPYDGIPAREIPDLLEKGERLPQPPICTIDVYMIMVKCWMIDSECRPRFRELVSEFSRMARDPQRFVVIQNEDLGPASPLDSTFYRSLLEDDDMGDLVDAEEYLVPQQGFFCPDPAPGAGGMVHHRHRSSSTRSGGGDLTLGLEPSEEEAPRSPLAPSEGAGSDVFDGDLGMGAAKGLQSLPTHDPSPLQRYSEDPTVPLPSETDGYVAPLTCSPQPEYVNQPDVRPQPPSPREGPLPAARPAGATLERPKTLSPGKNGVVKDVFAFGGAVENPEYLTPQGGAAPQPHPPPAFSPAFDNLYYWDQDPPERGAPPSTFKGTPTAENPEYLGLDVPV
Sequence of Proto-oncogene tyrosine-protein kinase Src (Homo sapiens) (P12931 2-536 limits assumed): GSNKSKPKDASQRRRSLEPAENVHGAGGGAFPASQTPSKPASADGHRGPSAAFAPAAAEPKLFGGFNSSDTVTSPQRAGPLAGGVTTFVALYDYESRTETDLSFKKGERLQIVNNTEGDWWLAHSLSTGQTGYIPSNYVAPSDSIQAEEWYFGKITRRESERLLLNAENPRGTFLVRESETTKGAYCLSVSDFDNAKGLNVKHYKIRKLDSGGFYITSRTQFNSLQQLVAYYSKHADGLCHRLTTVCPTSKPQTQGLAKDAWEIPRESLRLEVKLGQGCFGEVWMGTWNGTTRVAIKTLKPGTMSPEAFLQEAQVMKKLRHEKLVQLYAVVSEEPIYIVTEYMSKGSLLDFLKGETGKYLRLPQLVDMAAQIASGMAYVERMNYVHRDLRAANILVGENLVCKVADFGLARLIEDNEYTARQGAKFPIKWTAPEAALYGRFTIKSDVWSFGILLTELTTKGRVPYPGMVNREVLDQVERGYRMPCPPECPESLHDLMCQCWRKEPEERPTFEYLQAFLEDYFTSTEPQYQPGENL

| Compound | inhibition [1] | inhibition [2] | inhibition [3] | inhibition [4] | inhibition [5] | inhibition [6] | inhibition [7] | inhibition [8] | inhibition [9] | inhibition [10] | inhibition [11] | inhibition [12] | inhibition [13] | inhibition [14] | inhibition [15] | other results |
| --- | --- | --- | --- | --- | --- | --- | --- | --- | --- | --- | --- | --- | --- | --- | --- | --- |
| O=C(Nc1ccc(OC(F)(F)F)cc1)c1nscc1NCc1ccncc1 | < 30% | < 30% | < 30% | < 30% | < 30% | < 30% | < 30% | < 30% | < 30% | < 30% | < 30% | < 30% | < 30% | < 30% | < 30% |  |
| O=C(Nc1ccc2[nH]ncc2c1)c1nscc1NCc1ccncc1 | < 30% | < 30% | < 30% | < 30% | < 30% | < 30% | < 30% | < 30% | < 30% | < 30% | < 30% | < 30% | < 30% | < 30% | < 30% |  |
| O=C(Nc1ccc(C(F)(F)F)cc1)c1nscc1NCc1ccccn1 | < 30% | < 30% | < 30% | < 30% | < 30% | < 30% | < 30% | < 30% | < 30% | < 30% | < 30% | < 30% | < 30% | < 30% | < 30% |  |
| O=C(Nc1ccc(Cl)c(C(F)(F)F)c1)c1nscc1NCc1ccncc1 | < 30% | < 30% | < 30% | < 30% | < 30% | < 30% | < 30% | < 30% | < 30% | < 30% | < 30% | < 30% | < 30% | < 30% | < 30% | inhibition [16]: < 30%; IC50 [17]: 0.23 µM; IC50 [18]: 0.98 µM; IC50 [19]: 0.53 µM; inhibition [20]: < 30%; inhibition [21]: < 30% |
| Cc1ccc(NC(=O)c2nscc2NCc2ccncc2)c(F)c1 | < 30% | < 30% | < 30% | < 30% | < 30% | < 30% | < 30% | < 30% | < 30% | < 30% | < 30% | < 30% | < 30% | < 30% | < 30% |  |
| O=C(Nc1ccc(C(F)(F)F)cc1)c1nscc1NCc1cccnc1 | < 30% | < 30% | < 30% | < 30% | < 30% | < 30% | < 30% | < 30% | < 30% | < 30% | < 30% | < 30% | < 30% | < 30% | < 30% |  |
| O=C(Nc1ccc(Cl)cc1)c1nscc1NCc1ccncc1 | < 30% | < 30% | < 30% | < 30% | < 30% | < 30% | < 30% | < 30% | < 30% | < 30% | < 30% | < 30% | < 30% | < 30% | < 30% |  |
| O=C(NCc1ccc2c(c1)OCO2)c1nscc1NCc1ccncc1 | < 30% | < 30% | < 30% | < 30% | < 30% | < 30% | < 30% | < 30% | < 30% | < 30% | < 30% | < 30% | < 30% | < 30% | < 30% | inhibition [16]: < 30%; IC50 [17]: 0.65 µM; IC50 [18]: 0.7 µM; IC50 [19]: 0.79 µM; inhibition [20]: < 30%; inhibition [21]: < 30% |
| O=C(Nc1cccc(C(F)(F)F)c1)c1nscc1NCc1ccc(F)c(F)c1 | < 30% | < 30% | < 30% | < 30% | < 30% | < 30% | < 30% | < 30% | < 30% | < 30% | < 30% | < 30% | < 30% | < 30% | < 30% |  |
| O=C(Nc1ccccc1Br)c1nscc1NCc1ccncc1 | < 30% | < 30% | < 30% | < 30% | < 30% | < 30% | < 30% | < 30% | < 30% | < 30% | < 30% | < 30% | < 30% | < 30% | < 30% |  |
| O=C(Nc1ccc(C(F)(F)F)cc1)c1nscc1NCc1ccncc1 | < 30% | < 30% | < 30% | < 30% | < 30% | < 30% | < 30% | < 30% | < 30% | < 30% | < 30% | < 30% | < 30% | < 30% | < 30% |  |
| Cc1cc(NC(=O)c2nscc2NCc2ccncc2)ccc1C(F)(F)F | < 30% | < 30% | < 30% | < 30% | < 30% | < 30% | < 30% | < 30% | < 30% | < 30% | < 30% | < 30% | < 30% | < 30% | < 30% |  |
| O=C(Nc1cccc(Br)c1)c1nscc1NCc1cnoc1 | < 30% | < 30% | < 30% | < 30% | < 30% | < 30% | < 30% | < 30% | < 30% | < 30% | < 30% | < 30% | < 30% | < 30% | < 30% |  |
| CC(C)(C)c1ccc(NC(=O)c2nscc2NCc2ccncc2)cc1 | < 30% | < 30% | < 30% | < 30% | < 30% | < 30% | < 30% | < 30% | < 30% | < 30% | < 30% | < 30% | < 30% | < 30% | < 30% |  |
| O=C(Nc1cccc(C(F)(F)F)c1)c1nscc1NCc1cccnc1 | < 30% | < 30% | < 30% | < 30% | < 30% | < 30% | < 30% | < 30% | < 30% | < 30% | < 30% | < 30% | < 30% | < 30% | < 30% |  |
